This passage reports IC50 results from patent US5614625A, “Hydroxamic acid derivatives with tricyclic substitution” (Hoffmann-La Roche Inc., priority 1994, dated 1997).

The structures appear in SMILES notation.

In this experiment the target is T1, collagenase obtained from a culture of human synovial fibroblasts (Homo sapiens, UniProt P03956).
T1 construct: endogenous in cells; host or cells: human synovial fibroblast culture (conditioned medium)
T1 sequence (P03956 100-469): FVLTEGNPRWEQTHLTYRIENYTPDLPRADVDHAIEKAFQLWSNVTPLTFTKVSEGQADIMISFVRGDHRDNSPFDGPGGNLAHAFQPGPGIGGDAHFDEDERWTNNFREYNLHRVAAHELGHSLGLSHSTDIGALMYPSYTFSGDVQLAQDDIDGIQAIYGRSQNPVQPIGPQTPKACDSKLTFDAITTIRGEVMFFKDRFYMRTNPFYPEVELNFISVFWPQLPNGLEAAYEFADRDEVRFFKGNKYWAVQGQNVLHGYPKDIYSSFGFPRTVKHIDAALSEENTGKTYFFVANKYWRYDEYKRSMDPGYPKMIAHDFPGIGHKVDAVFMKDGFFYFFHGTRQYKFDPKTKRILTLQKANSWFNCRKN
The experiment in a line: in vitro collagenase inhibiting activity, microtitre plate assay with 14C-acetylated collagen type I from rat tail tendons as substrate. Type of experiment: biochemical. The note with it: trypsin-activated pro-collagenase; 14C-acetylated collagen type I substrate; concentration reducing substrate cleavage and solubilization to 50%.
Turning to `CN1C(=O)N(CC(C(=O)NO)[C@@H](CC2CC2)C(=O)N2CCC(O)CC2)C(=O)C1(C)C` (single isomer, unassigned) [Example 2, 1-[3-cyclopropyl-2-(R)-[1(R or S)-(hydroxycarbamoyl)-2-(3,4,4-trimethyl-2,5-dioxo-1-imidazolidinyl)ethyl]propionyl]-4-piperidinol], the IC50 came out at 18 nM.

In the case of `CN1C(=O)N(CC(C(=O)NO)[C@@H](CC2CCC2)C(=O)N2CCCCC2)C(=O)C1(C)C` (single isomer, unassigned) [Example 4, 1-[3-cyclobutyl-2(R)-[1(R or S)-(hydroxycarbamoyl)-2-(3,4,4-trimethyl-2,5-dioxo-1-imidazolidinyl)ethyl]propionyl]piperidine], the midpoint of inhibition, the IC50, lay at 7 nM.

`CN1C(=O)N(CC(C(=O)NO)[C@@H](CC2CCC2)C(=O)N2CCC(O)CC2)C(=O)C1(C)C` (single isomer, unassigned) [Example 5, 1-[3-cyclobutyl-2(R)-[1(R or S)-(hydroxycarbamoyl)-2-(3,4,4-trimethyl-2,5-dioxo-1-imidazolidinyl)ethyl]propionyl]-4-piperidinol] returned an IC50 of 2.5 nM.

The compound `CN1C(=O)N(CC(C(=O)NO)[C@@H](CC2CCCC2)C(=O)N2CCC(O)CC2)C(=O)C1(C)C` (single isomer, unassigned) [Example 7, 1-[3-cyclopentyl-2[(R)-[1(R or S)-(hydroxycarbamoyl)-2-(3,4,4-trimethyl-2,5-dioxo-1imidazolidinyl)ethyl]propionyl]-4-piperidinol] showed an IC50 of 6.5 nM.

`CN1C(=O)N(CC(C(=O)NO)[C@@H](CC2CCCC2)C(=O)N2CCOCC2)C(=O)C1(C)C` (single isomer, unassigned) [Example 16, 4-[3-cyclopentyl-2(R)-[1(R or S)-(hydroxycarbamoyl)-2-(3,4,4-trimethyl-2,5-dioxo-1-imidazolidinyl)ethyl]propionyl]morpholine] gave an IC50 of 4.1 nM. This IC50 lies about 1.6-fold lower than the previous one.

`CNC(=O)[C@H]1N(C(=O)[C@H](CC2CCCC2)C(CN2C(=O)N(C)C(C)(C)C2=O)C(=O)NO)CSC1(C)C` (single isomer, unassigned) [Example 17, 3-[3-cyclopentyl-2(R)-[1(R or S)-(hydroxycarbamoyl)-2-(3,4,4-trimethyl-2,5-dioxo-1imidazolidinyl)ethyl]propionyl]-N,5,5-trimethyl-4(R)-thiazolidinecarboxamide] gave an IC50 of 2.35 nM.

`CN1C(=O)N(CC(C(=O)NO)[C@@H](CC2CCC2)C(=O)N2CCCCCCC2)C(=O)C1(C)C` (single isomer, unassigned) [Example 23, 1-[3-cyclobutyl-2(R)-[1(R or S)-(hydroxycarbamoyl)-2-(3,4,4-trimethyl-2,5-dioxo-1-imidazolidinyl)ethyl]propionyl]octahydroazocine] gave an IC50 of 34 nM.

One may read the IC50 as the concentration that inhibits the measured activity by half. A high value points to a need for much substance.
